What was measured:
Type in all cases: in vivo
corn (Zea mays) [1] = assay: Test G Post-Emergence Protocol; settings: Zea mays, post-emergence, 312 h, read-out: Corn damage rating; for plant injury at 15.625 g/ha: 15.625 g ai/ha, evaluated after 13 days (100=total damage to plant; 0=no damage to plant); for plant injury at 62.5 g/ha: 62.5 g ai/ha; for plant injury at 62.5 g/ha / plant injury at 250 g/ha: evaluated after 13 days, 100=total damage to plant, 0=no damage to plant; for plant injury at 250 g/ha: 250 g ai/ha
Method in brief: (§1)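 Foliar application was made 8 days after sowing, using an aqueous spray of the active in acetone/water (50:50) with 0.5% Tween 20, at doses of 15.625, 62.5 or 250 g/ha. Injury was assessed 13 days later, where 100 meant the plant was fully damaged.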

[2] = tested on: barnyardgrass (Echinochloa crus-galli); assay: Test G Post-Emergence Protocol; settings: Echinochloa crus-galli, post-emergence, 312 h, read-out: Barnyardgrass damage rating; for pest or weed control at 15.625 g/ha: 15.625 g ai/ha, evaluated after 13 days (100=total damage to plant; 0=no damage to plant); for pest or weed control at 62.5 g/ha: 62.5 g ai/ha; for pest or weed control at 62.5 g/ha / pest or weed control at 250 g/ha: evaluated after 13 days, 100=total damage to plant, 0=no damage to plant; for pest or weed control at 250 g/ha: 250 g ai/ha
Method in brief: as §1

[3] = tested on: redroot pigweed (Amaranthus retroflexus); assay: Test G Post-Emergence Protocol; settings: Amaranthus retroflexus, post-emergence, 312 h, read-out: Pigweed, Redroot damage rating; for pest or weed control at 15.625 g/ha: 15.625 g ai/ha, evaluated after 13 days (100=total damage to plant; 0=no damage to plant); for pest or weed control at 62.5 g/ha: 62.5 g ai/ha; for pest or weed control at 62.5 g/ha / pest or weed control at 250 g/ha: evaluated after 13 days, 100=total damage to plant, 0=no damage to plant; for pest or weed control at 250 g/ha: 250 g ai/ha
Method in brief: as §1

[4] = tested on: velvetleaf (Abutilon theophrasti); assay: Test G Post-Emergence Protocol; settings: Abutilon theophrasti, post-emergence, 312 h, read-out: Velvetleaf damage rating; for pest or weed control at 15.625 g/ha: 15.625 g ai/ha, evaluated after 13 days (100=total damage to plant; 0=no damage to plant); for pest or weed control at 62.5 g/ha: 62.5 g ai/ha; for pest or weed control at 62.5 g/ha / pest or weed control at 250 g/ha: evaluated after 13 days, 100=total damage to plant, 0=no damage to plant; for pest or weed control at 250 g/ha: 250 g ai/ha
Method in brief: as §1

[5] = tested on: ivy-leaved morning glory (Ipomoea hederacea); assay: Test G Post-Emergence Protocol; settings: Ipomoea, post-emergence, 312 h, read-out: Morningglory, Ivy-leaved damage rating; for pest or weed control at 15.625 g/ha: 15.625 g ai/ha, evaluated after 13 days (100=total damage to plant; 0=no damage to plant); for pest or weed control at 62.5 g/ha: 62.5 g ai/ha; for pest or weed control at 62.5 g/ha / pest or weed control at 250 g/ha: evaluated after 13 days, 100=total damage to plant, 0=no damage to plant; for pest or weed control at 250 g/ha: 250 g ai/ha
Method in brief: as §1

[6] = tested on: giant foxtail (Setaria faberi); assay: Test G Post-Emergence Protocol; settings: Setaria faberi, post-emergence, 312 h, read-out: Foxtail, Giant damage rating; for pest or weed control at 15.625 g/ha: 15.625 g ai/ha, evaluated after 13 days (100=total damage to plant; 0=no damage to plant); for pest or weed control at 62.5 g/ha: 62.5 g ai/ha; for pest or weed control at 62.5 g/ha / pest or weed control at 250 g/ha: evaluated after 13 days, 100=total damage to plant, 0=no damage to plant; for pest or weed control at 250 g/ha: 250 g ai/ha
Method in brief: as §1

corn (Zea mays) [7] = assay: Test G Pre-Emergence Protocol; settings: Zea mays, pre-emergence, 312 h, evaluated after 13 days; for plant injury at 15.625 g/ha: 15.625 g ai/ha; for plant injury at 15.625 g/ha / plant injury at 250 g/ha: read-out: Corn damage rating (100=total damage to plant; 0=no damage to plant); for plant injury at 62.5 g/ha: 62.5 g ai/ha, 100=total damage to plant, 0=no damage to plant, read-out: Corn damage rating; for plant injury at 250 g/ha: 250 g ai/ha
Method in brief: (§2)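 Pre-emergence spray, 15.625/62.5/250 g/ha, vehicle acetone:water 50:50 + 0.5% Tween 20, applied 1 d after sowing. Glasshouse 24/16° C, 14 h light, 65% RH, watered twice daily. Visual damage rating at 13 d, 0–100 scale.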

[8] = tested on: barnyardgrass (Echinochloa crus-galli); assay: Test G Pre-Emergence Protocol; settings: Echinochloa crus-galli, pre-emergence, 312 h, evaluated after 13 days; for pest or weed control at 15.625 g/ha: 15.625 g ai/ha; for pest or weed control at 15.625 g/ha / pest or weed control at 250 g/ha: read-out: Barnyardgrass damage rating (100=total damage to plant; 0=no damage to plant); for pest or weed control at 62.5 g/ha: 62.5 g ai/ha, 100=total damage to plant, 0=no damage to plant, read-out: Barnyardgrass damage rating; for pest or weed control at 250 g/ha: 250 g ai/ha
Method in brief: as §2

[9] = tested on: redroot pigweed (Amaranthus retroflexus); assay: Test G Pre-Emergence Protocol; settings: Amaranthus retroflexus, pre-emergence, 312 h, evaluated after 13 days; for pest or weed control at 15.625 g/ha: 15.625 g ai/ha; for pest or weed control at 15.625 g/ha / pest or weed control at 250 g/ha: read-out: Pigweed, Redroot damage rating (100=total damage to plant; 0=no damage to plant); for pest or weed control at 62.5 g/ha: 62.5 g ai/ha, 100=total damage to plant, 0=no damage to plant, read-out: Pigweed, Redroot damage rating; for pest or weed control at 250 g/ha: 250 g ai/ha
Method in brief: as §2

[10] = tested on: velvetleaf (Abutilon theophrasti); assay: Test G Pre-Emergence Protocol; settings: Abutilon theophrasti, pre-emergence, 312 h, evaluated after 13 days; for pest or weed control at 15.625 g/ha: 15.625 g ai/ha; for pest or weed control at 15.625 g/ha / pest or weed control at 250 g/ha: read-out: Velvetleaf damage rating (100=total damage to plant; 0=no damage to plant); for pest or weed control at 62.5 g/ha: 62.5 g ai/ha, 100=total damage to plant, 0=no damage to plant, read-out: Velvetleaf damage rating; for pest or weed control at 250 g/ha: 250 g ai/ha
Method in brief: as §2

[11] = tested on: ivy-leaved morning glory (Ipomoea hederacea); assay: Test G Pre-Emergence Protocol; settings: Ipomoea, pre-emergence, 312 h, evaluated after 13 days; for pest or weed control at 15.625 g/ha: 15.625 g ai/ha; for pest or weed control at 15.625 g/ha / pest or weed control at 250 g/ha: read-out: Morningglory, Ivy-leaved damage rating (100=total damage to plant; 0=no damage to plant); for pest or weed control at 62.5 g/ha: 62.5 g ai/ha, 100=total damage to plant, 0=no damage to plant, read-out: Morningglory, Ivy-leaved damage rating; for pest or weed control at 250 g/ha: 250 g ai/ha
Method in brief: as §2

[12] = tested on: giant foxtail (Setaria faberi); assay: Test G Pre-Emergence Protocol; settings: Setaria faberi, pre-emergence, 312 h, evaluated after 13 days; for pest or weed control at 15.625 g/ha: 15.625 g ai/ha; for pest or weed control at 15.625 g/ha / pest or weed control at 250 g/ha: read-out: Foxtail, Giant damage rating (100=total damage to plant; 0=no damage to plant); for pest or weed control at 62.5 g/ha: 62.5 g ai/ha, 100=total damage to plant, 0=no damage to plant, read-out: Foxtail, Giant damage rating; for pest or weed control at 250 g/ha: 250 g ai/ha
Method in brief: as §2

## Cc1cc([C@H]2CN(C)C(=O)[C@@H]2C(=O)Nc2ccc(F)c(F)c2F)cnn1 (racemic) [Compound 1663]
Corn (Zea mays) [1]
  plant injury at 15.625 g/ha: 0%
  plant injury at 62.5 g/ha: 0%
  plant injury at 250 g/ha: 0%
[2]
  pest or weed control at 15.625 g/ha: 0%
  pest or weed control at 62.5 g/ha: 0%
  pest or weed control at 250 g/ha: 0%
[3]
  pest or weed control at 15.625 g/ha: 0%
  pest or weed control at 62.5 g/ha: 0%
  pest or weed control at 250 g/ha: 0%
[4]
  pest or weed control at 15.625 g/ha: 0%
  pest or weed control at 62.5 g/ha: 0%
  pest or weed control at 250 g/ha: 0%
[5]
  pest or weed control at 15.625 g/ha: 0%
  pest or weed control at 62.5 g/ha: 0%
  pest or weed control at 250 g/ha: 0%
[6]
  pest or weed control at 15.625 g/ha: 0%
  pest or weed control at 62.5 g/ha: 0%
  pest or weed control at 250 g/ha: 0%
Corn (Zea mays) [7]
  plant injury at 15.625 g/ha: 0%
  plant injury at 62.5 g/ha: 0%
  plant injury at 250 g/ha: 0%
[8]
  pest or weed control at 15.625 g/ha: 0%
  pest or weed control at 62.5 g/ha: 0%
  pest or weed control at 250 g/ha: 0%
[9]
  pest or weed control at 15.625 g/ha: 0%
  pest or weed control at 62.5 g/ha: 0%
  pest or weed control at 250 g/ha: 0%
[10]
  pest or weed control at 15.625 g/ha: 0%
  pest or weed control at 62.5 g/ha: 0%
  pest or weed control at 250 g/ha: 0%
[11]
  pest or weed control at 15.625 g/ha: 0%
  pest or weed control at 62.5 g/ha: 0%
  pest or weed control at 250 g/ha: 0%
[12]
  pest or weed control at 15.625 g/ha: 0%
  pest or weed control at 62.5 g/ha: 0%
  pest or weed control at 250 g/ha: 0%

## CON1C[C@@H](c2cccc(C(F)(F)F)c2)[C@H](C(=O)Nc2cccc(F)c2F)C1=O (racemic) [Compound 1763]
Corn (Zea mays) [1]
  plant injury at 15.625 g/ha: 20%
  plant injury at 62.5 g/ha: 20%
  plant injury at 250 g/ha: 70%
[2]
  pest or weed control at 15.625 g/ha: 40%
  pest or weed control at 62.5 g/ha: 60%
  pest or weed control at 250 g/ha: 70%
[3]
  pest or weed control at 15.625 g/ha: 0%
  pest or weed control at 62.5 g/ha: 0%
  pest or weed control at 250 g/ha: 20%
[4]
  pest or weed control at 15.625 g/ha: 0%
  pest or weed control at 62.5 g/ha: 10%
  pest or weed control at 250 g/ha: 20%
[5]
  pest or weed control at 15.625 g/ha: 30%
  pest or weed control at 62.5 g/ha: 40%
  pest or weed control at 250 g/ha: 50%
[6]
  pest or weed control at 15.625 g/ha: 60%
  pest or weed control at 62.5 g/ha: 60%
  pest or weed control at 250 g/ha: 70%
Corn (Zea mays) [7]
  plant injury at 15.625 g/ha: 0%
  plant injury at 62.5 g/ha: 50%
  plant injury at 250 g/ha: 80%
[8]
  pest or weed control at 15.625 g/ha: 20%
  pest or weed control at 62.5 g/ha: 60%
  pest or weed control at 250 g/ha: 80%
[9]
  pest or weed control at 15.625 g/ha: 0%
  pest or weed control at 62.5 g/ha: 0%
  pest or weed control at 250 g/ha: 0%
[10]
  pest or weed control at 15.625 g/ha: 0%
  pest or weed control at 62.5 g/ha: 0%
  pest or weed control at 250 g/ha: 0%
[11]
  pest or weed control at 15.625 g/ha: 0%
  pest or weed control at 62.5 g/ha: 0%
  pest or weed control at 250 g/ha: 20%
[12]
  pest or weed control at 15.625 g/ha: 80%
  pest or weed control at 62.5 g/ha: 90%
  pest or weed control at 250 g/ha: 90%
